Results published in article PMC9611758, “Bioactive Platinum(IV) Complexes Incorporating Halogenated Phenylacetates” (Molecules, 2022).
“And” between values parts separate entries of the source, which are not always exact repeats. Equal entries are not always repeated. “Also recorded” adds a separate entry of the source.

Columns and labels:
[1] = Lipophilicity by HPLC (log kw); format: physicochemical; conditions: for log kw (y-intercept of log k versus [CH3CN] % plot, Figure S80): linear fit; for log kw: chromatographic lipophilicity index, extrapolated to 100% d.i.H2O
Description: For lipophilicity measurements, HPLC was utilised instead of the traditional shake-flask method, as described previously. Recent studies have also reported the efficiency of HPLC in measuring the lipophilicity of compounds [79, 80]. Each complex was eluted under several isocratic ratios. A standard curve was generated to calculate the log value of the capacity factor (log k) according to Equation (1). Following Equation (2), the percentage of organic solvent (CH3CN) in the mobile phase from each isocratic run was plotted against log kw (Figure S80). Log kw is the chromatographic lipophilicity index or measure of lipophilicity of the complex, so a higher value corresponds to greater lipophilicity. Because the selected axial ligands in this study contain F, Cl, Br, and I, it was only appropriate to determine the influence of the halogens on the overall lipophilicity of the platinum(IV) complexes. […] Conversely, the least lipophilic complex was the phen derivative containing 4-FPA, 3, with a log kw of 0.25. Furthermore, for the phen derivatives, the order of increasing lipophilicity was 3 > 1 > 5 > 7, which corresponds to the order of increasing size of the halogens, F > Cl > Br > I. This pattern was also observed with the 5,6-Me2phen derivatives (4 > 2 > 6 > 8), thereby confirming that the halogens increased the order of lipophilicity accordingly based on their size.
For lipophilicity measurements, analytical HPLC was utilised. Elution profiles were acquired on an Agilent (Melbourne, VIC, Australia) Technologies 1260 Infinity instrument equipped with a Phenomenex Onyx^TM Monolithic C18-reverse phase column (100 × 4.6 mm, 5 µm pore size) (Sydney, NSW, Australia). The mobile phase consisted of solvents, A (0.06% TFA in d.i.H2O) and B (0.06% TFA in CH3CN/d.i.H2O (90:10)). Potassium iodide was used as an external dead volume marker to determine the dead time of the column. Retention times (TR) were measured at varying isocratic ratios ranging from 30 to 36% of solvent B at 1 mL·min^−1 mL. An injection volume of 10 µL was utilised. Capacity factors were determined according to Equation (1):(1) k=(TR−T0)/T0 where k is the capacity factor, TR is the retention time of the analyte, and T0 represents the dead time. A minimum of four different mobile compositions were used for each complex to calculate k. A linear plot was generated of log k against the concentration of CH3CN in the mobile phase to determine the value of log kw expressed by Equation (2):(2) logk=Sφ+logkw where S is the slope, φ is the concentration of the CH3CN in the mobile phase, and log kw represents the capacity factor of the complex in 100% d.i.H2O. Extrapolation of this linear plot to the y-intercept indicates the log kw value.

U87 glioblastoma = assay: MTT growth inhibition assay, U87; format: cell-based, human; conditions: 72 h
MIA pancreas = assay: MTT growth inhibition assay, MIA; format: cell-based, human; conditions: 72 h
[2] = Reduction experiments with AsA by 1H-NMR and 1D-195Pt-NMR; format: physicochemical; conditions: D2O, 37 °C; for T50% (approximate time at which 50% reduction occurs): 10 mM PBS (~7.4 pH); for extent of reduction 1 h after the final 1H-NMR experiment (1D-195Pt-NMR): regions −2800 and 400 ppm
Description: Platinum(IV) complexes are reduced to their platinum(II) precursors by intracellular biological reducing agents such as AsA or GSH in tumour cells. However, the precise mechanism by which reduction occurs is not fully understood. In this paper, reduction reaction experiments were undertaken on the synthesised platinum(IV) complexes, 1–8, with the aid of ^1H-NMR and 1D-^195Pt-NMR spectroscopy. The method used for the reduction reaction experiments was adapted from the literature without modifications. A total of 10 mM PBS (~7.4 pH) was selected as media, and AsA was used as the biological reducing agent to investigate the reduction property of 1–8. Prior to the reduction reaction experiments, a control was prepared where each metal complex was dissolved with PBS in D2O. 1D-^195Pt-NMR was measured within the regions of −2800 and 400 ppm (30 min per region), at 37 °C. This was undertaken to confirm that the PBS would not interfere with the reduction process of the metal complexes. […] The approximate time points for the studied complexes at which an estimated 50% reduction had occurred, in the presence of AsA, as represented by T50%, are summarised in Table 6.
The reduction properties of 1–8 were monitored using ^1H-NMR and 1D-^195Pt-NMR spectroscopy on a 400 MHz Bruker (Melbourne, VIC, Australia) Avance Spectrometer. A sequence of ^1H-NMR experiments was carried out for 1 h at 37 °C, followed by 1D-^195Pt-NMR within the regions of −2800 and 400 ppm. An amount of 10 mM PBS (~7.4 pH) was transferred to a vial and reduced to dryness through rotary evaporation. AsA (~1 mg) was combined with the metal complex (~5 mg) and transferred to the vial containing the dried PBS. A total of 600 µL of D2O was then added to the vial to dissolve the complex, AsA, and the PBS together.

BE2-C neuroblastoma = assay: MTT growth inhibition assay, BE2-C; format: cell-based, human; conditions: 72 h
A2780 ovarian = assay: MTT growth inhibition assay, A2780; format: cell-based, human; conditions: 72 h
A431 skin = assay: MTT growth inhibition assay, A431; format: cell-based, human; conditions: 72 h
[3] = system: non-tumour derived MCF10A breast line; assay: MTT growth inhibition assay, MCF10A; format: cell-based, human; conditions: 72 h
[4] = system: ADDP-resistant ovarian variant; assay: MTT growth inhibition assay, ADDP; format: cell-based, human; conditions: for GI50: MTT assay, 72 h
Du145 prostate = assay: MTT growth inhibition assay, Du145; format: cell-based, human; conditions: for GI50: MTT assay, 72 h
SJ-G2 glioblastoma = assay: MTT growth inhibition assay, SJ-G2; format: cell-based, human; conditions: 72 h
panel of cell lines = assay: MTT growth inhibition assay, whole panel of cell lines; format: cell-based, human; conditions: average over the cell lines tested, MTT assay, 72 h
H460 lung = assay: MTT growth inhibition assay, H460; format: cell-based, human; conditions: 72 h
HT29 colon cells = assay: ROS detection assay (DCFH-DA); format: cell-based, human; conditions: HT29 colon cells, treated at GI50 concentration (TBHP positive control 20 μM)
Description: Although ROS is required for cancer cell function and progression, it can induce programmed cell death or apoptosis. […] In this study, we report the ROS activity of the studied platinum(IV) complexes, 1–8, together with the individual axial ligands (4-CPA, 4-FPA, 4-BPA, and 4-IPA) in the human cancer cell line, HT29 colon (Figure 19, Table 8, and Figure S95). The ROS potential of their platinum(II) and platinum(IV) precursors in the same cell line is also presented for comparison purposes (Table 8). […] HT29 colon cells were stained by DCFH-DA and then treated with the complexes at each specific GI50 concentration. Upon ROS production, the DCFH-DA produced dichlorodihydrofluorescein, a fluorescent product. The measured fluorescence was, therefore, proportional to the produced ROS.
To investigate the presence of ROS in treated cells, a DCFDA/H2DCFDA-cellular ROS Assay Kit (Abcam, Cambridge, MA, USA) was used, as previously described. A total of 25,000 cells/mL of HT29 cells in DMEM were seeded in 96-well plates. Cells were washed with 1X kit buffer, and then stained with 25 μM 2′,7′-dichlorofluorescein diacetate (DCFH-DA) and incubated for 45 min. DCFH-DA was then removed, and cells were then re-washed with 1X kit buffer, after which phenol red free media was added. Cells were then treated with a GI50 drug concentration for each complex. The plates were directly scanned to measure fluorescence (relative fluorescence units (RFU)) at different time points using the Glo-Max®-Multimode microplate reader (Promega Corporation, Alexandra, VIC, Australia) at an excitation/emission of 485/535 nm. To generate the positive control (20 μM tert-butyl hydroperoxide (TBHP)), cells were washed with 1X kit buffer, and stained with DCFDA (25 μM) for 45 min; this was removed and TBHP was added in phenol red free media, and the resulting solution was scanned as described above.

MCF-7 breast = assay: MTT growth inhibition assay, MCF-7; format: cell-based, human; conditions: for GI50: MTT assay, 72 h
HT29 colon = assay: MTT growth inhibition assay, HT29; format: cell-based, human; conditions: MTT assay, 72 h

Row | Structure (SMILES) | log kw (y-intercept of log k versus [CH3CN] % plot, Figure S80) [1] | GI50 (U87 glioblastoma) | GI50 (MIA pancreas) | T50% (approximate time at which 50% reduction occurs) ([2]; 1H-NMR) | extent of reduction 1 h after the final 1H-NMR experiment (1D-195Pt-NMR) ([2]; PBS) | GI50 (BE2-C neuroblastoma) | GI50 (A2780 ovarian) | GI50 (A431 skin) | GI50 [3] | GI50 [4] | GI50 (Du145 prostate) | GI50 (SJ-G2 glioblastoma) | GI50 (panel of cell lines) | GI50 (H460 lung) | ROS production 24 h (HT29 colon cells) | ROS production 48 h (HT29 colon cells) | ROS production 72 h (HT29 colon cells) | GI50 (MCF-7 breast) | GI50 (HT29 colon) | log kw [1] | other results
1 | Cc1c(C)c2c3c4c1=CC=C[N]4[Pt+2]([OH])([O]C(=O)Cc1ccc(Cl)cc1)[N]3C=CC=2.N[C@H]1CCCC[C@@H]1N [Complex 2, [Pt^IV(5,6-Me2phen)(SS-DACH)(4-CPA)(OH)]^2+] | 0.9477 | 79 ± 30 nM | 28 ± 5.5 nM | 20 to 25 min | entirely reduce back to its platinum(II) precursor, 56MESS; also recorded: complete reduction | 110 ± 18 nM | 43 ± 10 nM | 41 ± 8 nM | 35 ± 7.8 nM | 26 ± 4.5 nM | 33 ± 21 nM | 100 ± 45 nM | 75 ± 30 nM | 200 ± 170 nM | 358 ± 21 RFU | 508 ± 16 RFU | 564 ± 10 RFU | 180 ± 77 nM | 22 ± 9.2 nM |  | time at which reduction starts ([2]; PBS, 1H-NMR): 5 min; extent of reduction at 1 h (1H-NMR) ([2]; PBS, 1 h): almost reduced; fold less potent than 56MESS (MCF-7 breast): ~2 fold
2 | N[C@H]1CCCC[C@@H]1N.O=C([O-])Cc1ccc(F)cc1.[OH-].[Pt+4].c1cnc2c(c1)ccc1cccnc12 [Complex 3, [Pt^IV(phen)(SS-DACH)(4-FPA)(OH)]^2+] | 0.249 | 1000 ± 150 nM | 230 ± 30 nM | 5 to 10 min | complete reduction | 810 ± 200 nM | 340 ± 70 nM | 450 ± 60 nM | 320 ± 10 nM | 250 ± 10 nM | 100 ± 17 nM | 337 ± 60 nM | 426 ± 60 nM | 320 ± 30 nM | 305 ± 28 RFU | 409 ± 22 RFU | 558 ± 13 RFU | 740 ± 60 nM | 210 ± 30 nM | 0.25 | 
3 | Cc1c(C)c2c3c4c1=CC=C[N]4[Pt+2]([OH])([O]C(=O)Cc1ccc(F)cc1)[N]3C=CC=2.N[C@H]1CCCC[C@@H]1N [Complex 4, [Pt^IV(5,6-Me2phen)(SS-DACH)(4-FPA)(OH)]^2+] | 0.8042 | 37 ± 5 nM | 5 ± 2 nM | 20 to 25 min | partial reduction | 110 ± 20 nM | 20 ± 4 nM | 14 ± 2 nM | 11 ± 3 nM | 6 ± 2 nM | 0.7 ± 0.4 nM | 30 ± 8 nM | 23 ± 4 nM | 10 ± 3 nM | 579 ± 18 RFU | 681 ± 17 RFU | 738 ± 15 RFU | 23 ± 5 nM | 6 ± 2 nM | 0.80 | fold more potent than cisplatin [4]: ~4700 fold; fold more potent than 56MESS (Du145 prostate; Du145 prostate, ratio of GI50 values): ~7 fold and 6.6 fold
4 | N[C@H]1CCCC[C@@H]1N.O=C([O-])Cc1ccc(Br)cc1.[OH-].[Pt+4].c1cnc2c(c1)ccc1cccnc12 [Complex 5, [Pt^IV(phen)(SS-DACH)(4-BPA)(OH)]^2+] | 0.8765 | 1100 ± 230 nM | 200 ± 20 nM | 15 to 20 min | partial reduction | 960 ± 120 nM | 380 ± 50 nM | 450 ± 10 nM | 320 ± 20 nM | 250 ± 20 nM | 110 ± 11 nM | 350 ± 20 nM | 457 ± 70 nM | 320 ± 20 nM | 281 ± 16 RFU | 399 ± 12 RFU | 478 ± 9 RFU | 850 ± 240 nM | 190 ± 20 nM | 0.87 | 
